# Source: PubChem BioAssay AID588780 (Sanford-Burnham Center for Chemical Genomics, 2011)
# pIC50: −log10 of the molar value. The source made the active and inactive calls.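 The calls were made as follows: active = compounds whose fitted half-maximal concentration in the cell-protection dose series is at or below a set limit; inactive = the rest.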
# Tested on: H9c2 cardiomyocytes, 2-deoxyglucose stress, ATP luminescence, 2 h
# Assay: protection of cardiomyocytes from 2-deoxyglucose injury, dose response, cell-based, 2-deoxyglucose stress, uHTS hits (AID 588780)
SMILES,IC50,pIC50
O=c1[nH]n(CC2COC3(CCCCC3)O2)c(=O)c2ccccc12 (stereo unspecified),> 79 µM (inactive),–
O=C(N/N=C/c1cn(-c2ccccc2)nc1-c1cccnc1)c1ccccc1,–,4.89
c1ccc(N2CCOCC2)c(Nc2nc3ccccc3n3cnnc23)c1,–,4.63
CC(OC(=O)c1cc(-c2cccnc2)nc2ccccc12)C(=O)Nc1ccc2ccccc2c1 (stereo unspecified),–,4.96
COc1cc(C(=O)N/N=C/c2ccc(OC(=O)c3ccccc3)c(OC)c2)ccc1O,> 79 µM (inactive),–
CC(Oc1ccccc1)C(=O)Nc1nc(-c2ccccn2)cs1 (stereo unspecified),> 79 µM (inactive),–
Cc1csc(SCc2nc3sc4c(c3c(=O)[nH]2)CCC4)n1,> 79 µM (inactive),–
O=C(Cc1n[nH]c(=O)c2ccccc12)NCc1ccccn1,> 79 µM (inactive),–
O=C(CSc1nc2ccccc2o1)NCc1n[nH]c(=O)c2ccccc12,–,4.86
Cc1nn2c(-c3cccc(NC(=O)c4ccco4)c3)nnc2c2ccccc12,> 79 µM (inactive),–
COc1ccc(OC)c(NC(=O)c2sc3ncnc(N4CCN(c5ccccn5)CC4)c3c2C)c1,> 79 µM (inactive),–
O=c1cc(-c2cccnc2)oc2c1ccc1ccccc12,–,4.90
CCOC(=O)c1cnc(SC)nc1Oc1cccc(NC(=O)c2cccc(Cl)c2Cl)c1,–,4.69
Clc1ccccc1-c1nc(N/N=C/c2cccnc2)c2ccccc2n1,–,5.08
COc1ccc(-c2cc(NC=O)c3ncc(-c4ccc(C(C)=O)cc4)n3c2)cn1,> 79 µM (inactive),–
COc1ccc(COc2cc(-c3cccc(OC)c3)nc3ccc(NC(=O)c4ccc(OC)cc4)cc23)cc1,–,5.28
O=C(CSc1nc2ccccc2c(=O)[nH]1)N1CCCCC1,> 79 µM (inactive),–
COc1cc(-c2cc(C(=O)NCc3ccco3)c3ccccc3n2)cc(OC)c1OC,–,4.78
CCOc1ccc(NC(=O)CN(C)C(=O)Cc2n[nH]c(=O)c3ccccc23)cc1OCC,> 79 µM (inactive),–
COc1cc(NC(=O)c2cc3ccccc3cc2OC)ccc1NC(=O)c1cccs1,> 79 µM (inactive),–
O=c1[nH]nc(CNc2ccc(O)cc2)c2ccccc12,> 79 µM (inactive),–
COc1ccc(-c2cc(NC(C)=O)c3ncc(-c4cccc(C(C)=O)c4)n3c2)cc1OC,–,5.12
C/C(=N\NC(=O)c1ccccc1-n1cccc1)c1ccccn1,> 79 µM (inactive),–
COc1ccc([N+](=O)[O-])cc1NC(=O)C(C)OC(=O)Cn1[nH]c(=O)c2ccccc2c1=O (stereo unspecified),40 µM (inactive),–

SMILES,IC50,pIC50
COc1ccc(C(=O)NNC(=O)c2ccc3ccccc3n2)cc1,> 79 µM (inactive),–
CCOC(=O)Cc1c(C)nc2c(-c3ccc(Cl)cc3)c[nH]n2c1=O,> 79 µM (inactive),–
O=C(C(=O)N(Cc1ccccc1)Cc1ccccc1)c1c(-c2ccccc2)[nH]c2ccccc12,> 79 µM (inactive),–
Cc1c(Cl)cnc(NC(=O)COC(=O)c2ccc([N+](=O)[O-])s2)c1Cl,> 79 µM (inactive),–
O=C(CCc1nc2ccccc2c(=O)[nH]1)Nc1ccc(Cl)c(Cl)c1,–,4.69
COc1cc(OC)cc(C(=O)NNC(=O)c2ccccn2)c1,> 79 µM (inactive),–
CC1(C)Cc2c(c(N3CCOCC3)nc3sc4c(NN)ncnc4c23)CS1,> 79 µM (inactive),–
CC(C)c1ccc(S(=O)(=O)N2CCN(CC(=O)c3ccc(O)c(O)c3)CC2)cc1,–,4.67
CCn1c(O)c(/C=N/N=C/c2ccccc2)c2ccc(C3=NNC(=O)CC3)cc21,> 79 µM (inactive),–
CCOc1cccc(-c2c(C(=O)N/N=C(\C)c3ccccn3)nnn2-c2nonc2N)c1,> 79 µM (inactive),–
Cc1ccc(NC(=O)c2nc[nH]c2C(=O)NCCCCCCNC(=O)c2[nH]cnc2C(=O)Nc2ccc(C)cc2)cc1,> 79 µM (inactive),–
O=C(COC(=O)Cn1[nH]c(=O)c2ccccc2c1=O)Nc1c(Cl)cccc1C(F)(F)F,> 79 µM (inactive),–
O=C(CCc1nc2ccccc2c(=O)[nH]1)OCCOc1ccc(Cl)cc1,31.3 µM (inactive),–
COc1ccc(-c2csc(/C(C#N)=C(\O)CSc3nccn3C)n2)cc1OC,> 79 µM (inactive),–
Cc1ccccc1N=Cc1cc2c(cc1[N+](=O)[O-])OCO2,> 79 µM (inactive),–
COc1ccccc1N1CCN(C(=O)c2ccc3nc(-c4ccco4)c(-c4ccco4)nc3c2)CC1,–,4.75
COc1ccnc(Oc2ccc(F)cc2)c1C(=O)N/C=N/OCc1ccc(Cl)cc1Cl,–,4.91
CC(=O)CCc1ccc(Oc2nc(-c3cccnc3)nc3ccccc23)cc1,> 79 µM (inactive),–
Cc1cc(Nc2ccccc2C(=O)O)nc2nc3ccccc3c(=O)n12,> 79 µM (inactive),–
Cc1sc2nc(SCC(=O)N3CCCC3)[nH]c(=O)c2c1C,> 79 µM (inactive),–
COC(=O)c1ccc(OCC(=O)Nc2ccccc2C(=O)NC2CC2)cc1,–,4.97
O=C(Nc1nc(-c2ccccn2)cs1)c1ccccc1-n1cnnn1,> 79 µM (inactive),–
CC(C)(C)OC(=O)CNC(=O)c1[nH]cnc1C(=O)NCC(=O)OCc1ccccc1,> 79 µM (inactive),–
CCOc1cccc(-c2nn3c(-c4ccccn4)nnc3s2)c1,> 79 µM (inactive),–

SMILES,IC50,pIC50
Cc1ccc(-c2nnc(NCc3nc4ccccc4[nH]3)c3ccccc23)cc1S(=O)(=O)N1CCOCC1,> 79 µM (inactive),–
Cc1nn(Cc2ccc(C(=O)N3CCN(C(=O)c4ccco4)CC3)o2)c(C)c1[N+](=O)[O-],> 79 µM (inactive),–
Cc1cc(C)c(C)c(S(=O)(=O)N2CCN(C(=O)CCc3nc4ccccc4c(=O)[nH]3)CC2)c1C,> 79 µM (inactive),–
COc1ccc(/C=N\NC(=O)c2c(C)nc3ccc(Br)cn23)cc1,> 79 µM (inactive),–
CC(C)CC(C(=O)NC1CCCCC1)N(Cc1cccs1)C(=O)c1snc(C(N)=O)c1N (stereo unspecified),30.1 µM (inactive),–
O=c1oc2ccc3ccccc3c2cc1-c1nnc(-c2ccccc2)o1,–,4.76
COC(=O)c1ccccc1NC(=O)c1nc2nc(C)cc(C)n2n1,> 79 µM (inactive),–
COC(=O)c1cccc(S(=O)(=O)N(Cc2ccco2)Cc2cc3cc(OC)ccc3[nH]c2=O)c1,> 79 µM (inactive),–
COc1ccc2[nH]c(=O)c(CNC3CCCCC3)cc2c1,> 79 µM (inactive),–
Cc1ccc(NC(=O)c2cc(-c3cccs3)nc3ccccc23)nc1,–,5.01
O=C(N/N=C/c1cccc2cccnc12)[C@H]1C[C@@H]1c1ccccc1,–,4.53
Cc1ccccc1C(C(=O)NCc1ccccc1)N(Cc1ccco1)C(=O)c1ccccn1 (stereo unspecified),–,4.62
COc1cc(C(=O)N/N=C/c2sc(N3CCOCC3)nc2-c2ccccc2)cc(OC)c1OC,–,4.59
CCC(CC)C(=O)N(CCc1ccc(OC)cc1)Cc1nc2ccccc2c(=O)[nH]1,> 79 µM (inactive),–
O=C(Cn1[nH]c(=O)c2ccccc2c1=O)OCC(=O)N1CCCc2ccccc21,51.3 µM (inactive),–
Cc1ccc(C(C)C)c(OCC(=O)NNC(=O)Cn2[nH]c(=O)c3ccccc3c2=O)c1,75.1 µM (inactive),–
COc1ccc(Cl)cc1NC(=O)CCS(=O)(=O)c1cc2c(cc1C)NC(=O)CO2,–,4.67
Cc1ccc(CN(C)C(=O)COC(=O)CSc2ccc(C(N)=O)cc2[N+](=O)[O-])cc1,31.3 µM (inactive),–
Cc1c(O)ccc2c3c(c(=O)oc12)CCC(C)C3 (stereo unspecified),–,4.80
Cc1ccc2cc(C#N)c(N3CCN(C(=O)c4cccs4)CC3)nc2c1,> 79 µM (inactive),–
CCOc1ccc(S(=O)(=O)N(C)CCO)cc1-c1nc2c(C(C)(C)C)nn(C)c2c(=O)[nH]1,–,4.57
Cc1ccc(C(=O)Nc2nc(-c3ccccn3)cs2)s1,> 79 µM (inactive),–
C[C@H](CO)N1C[C@H](C)[C@@H](CN(C)S(=O)(=O)c2cccs2)Oc2ccc(NC(=O)Nc3ccccc3)cc2C1=O,–,4.55
Cn1nc(C(=O)Nc2nc(-c3ccccn3)cs2)c2ccccc2c1=O,39.6 µM (inactive),–

SMILES,IC50,pIC50
CCN(CC(=O)Nc1ccc(OC)cc1)C(=O)c1cc(-c2cccs2)nn1-c1ccccc1,–,5.04
CS(=O)(=O)N(Cc1ccc(C(=O)NCCSc2ccccn2)cc1)c1ccccc1,> 79 µM (inactive),–
CNC(=O)c1ccc(-c2sc3nc(N4CCOCC4)c4c(c3c2N)CC(C)(C)OC4)o1,–,4.88
Cn1c(NCc2ccco2)nc2c1c(=O)n(Cc1ccc(Cl)cc1)c(=O)n2C,31.3 µM (inactive),–
CCOC(=O)C1=C(C)NC(C)=C(C(=O)OCCNC(=O)c2cccnc2)C1c1cccc([N+](=O)[O-])c1 (stereo unspecified),–,4.54
COc1cc(C(=O)Nc2ccc(NC(=O)c3cccc(Cl)c3)nc2)cc(OC)c1OC,–,4.86
CN(CC(=O)Nc1ccc(F)cc1)C(=O)CCc1nc2ccccc2c(=O)[nH]1,> 79 µM (inactive),–
N#Cc1ccc(OCC(=O)Nc2nc(-c3ccccn3)cs2)cc1,> 79 µM (inactive),–
O=C(CCS(=O)(=O)c1ccccc1)Nc1nc(-c2ccccn2)cs1,31.3 µM (inactive),–
COc1cccc(Nc2nc(-c3sc(NC(=O)c4ccco4)nc3C)cs2)c1,> 79 µM (inactive),–
NC(=O)c1cc2ccccc2o/c1=N\NC(=O)c1ccc(F)cc1,–,5.06
C=CC[C@@H](CC(=O)NCCO)C(=O)NC[C@H](OC(=O)[C@@H](CC=C)Cc1ccc(F)cc1)c1ccccc1,> 79 µM (inactive),–
NC(=O)c1ccccc1OCC(=O)Nc1cccnc1Cl,> 79 µM (inactive),–
Cc1sc2nc(NCCO)[nH]c(=O)c2c1C,> 79 µM (inactive),–
Cc1ccc(N=Cc2cc(Br)cc(Cl)c2O)cc1,> 79 µM (inactive),–
N#Cc1c(-c2ccco2)cc(-c2ccccn2)nc1N,–,4.64
Cc1[nH]c(-c2ccccn2)nc(=S)c1Cl,> 79 µM (inactive),–
O=C(N/N=C/c1ccccn1)c1cc(C2CC2)nc2ccccc12,> 79 µM (inactive),–
CCOC(=O)CNS(=O)(=O)c1cc(-c2n[nH]c(=O)c3ccccc23)ccc1C,> 79 µM (inactive),–
CCCn1c(=O)c2[nH]c(-c3ccc(OCC(=O)Nc4ccc(C#N)cc4)cc3)nc2n(CCC)c1=O,> 79 µM (inactive),–
CSc1nsc(SC)c1C(=O)N1CCN(S(=O)(=O)c2ccc(C)cc2)C1C(C)C (stereo unspecified),–,4.66
NC(=O)c1nsc(C(=O)N(c2ccccc2)C(C(=O)NC2CCCC2)c2ccc3ncccc3c2)c1N (stereo unspecified),> 79 µM (inactive),–
CNC(=O)COC(=O)/C=C/c1cn(-c2ccccc2)nc1-c1ccc(C)o1,–,4.93
NC(=O)c1nsc(C(=O)N(Cc2ccco2)C(C(=O)NCc2ccccc2)c2ccc(O)cc2)c1N (stereo unspecified),–,5.00
